From patent US20130029970A1 (priority 2009, published 2013) come the findings set out here.

Test [1] concerns the target T1, recombinant human cannabinoid receptor CB2 (Homo sapiens, UniProt P34972).
T1 construct: (cDNA clone) CNR0200000
The test can be described thus: Cannabinoid receptor radioligand binding assay, [3H]-CP 55,940 displacement, hCB2. An outline of the steps:
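Receptor source: membrane pellet (40,000×g) from transfected cells, stored in HEPES pH 7.4/MgCl2/EDTA/sucrose buffer.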

The target in the next test is T2, human CB2 (hCB2) (Homo sapiens, UniProt P34972).
T2 construct: (cDNA clone) CNR0200000
Nature of the test: 35S GTPγS binding assay, hCB2 agonist. The format is biochemical. The conditions noted are these: GTPγS agonist, HEK-293 membranes; read-out: hCB2 EC50 (GTPyS ag). Put shortly: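 Agonist-stimulated [35S]GTPγS (0.1 nM) binding measured by scintillation proximity after 90 min at room temperature. Reaction buffer: 50 mM HEPES pH 7.4, 100 mM NaCl, 5 mM MgCl2, 0.001% saponin plus 20 uM GDP. Membranes (5 μg) came from transfected cells expressing hCB2 cDNA (pcDNA3.1+ vector).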

In the next test the target is T3, human CB2 receptors (Homo sapiens, UniProt P34972).
T3 construct: (cDNA clone) CNR0200000
Nature of the test: cAMP assay in HEK-293 cells, hCB2 agonist. The format is cell-based. The conditions noted are these: inhibition of forskolin-stimulated cAMP, HEK-293 cells; for EC50: read-out: hCB2 EC50 (cAMP ag). Put shortly: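 Stable hCB2 HEK-293 cells in HBSS/10 mM HEPES/0.1% fatty-acid-free BSA incubated 30 min at 37° C with compound; forskolin 90 uM in 3× compound mix.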
A general note: cAMP levels reflect the balance of adenylyl cyclase and phosphodiesterase activity.

Bounds are passed on as bounds.

T2 sequence (P34972 whole entry): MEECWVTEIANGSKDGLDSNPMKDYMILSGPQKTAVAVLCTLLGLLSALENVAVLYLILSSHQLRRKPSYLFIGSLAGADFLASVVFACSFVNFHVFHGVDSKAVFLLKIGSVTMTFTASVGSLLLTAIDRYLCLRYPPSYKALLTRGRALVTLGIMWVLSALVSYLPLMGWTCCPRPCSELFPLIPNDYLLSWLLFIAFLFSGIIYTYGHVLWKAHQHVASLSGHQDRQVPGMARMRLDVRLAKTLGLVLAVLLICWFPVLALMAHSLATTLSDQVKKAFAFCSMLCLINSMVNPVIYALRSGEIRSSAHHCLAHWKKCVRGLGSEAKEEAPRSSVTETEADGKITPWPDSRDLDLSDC
T3 sequence (P34972 whole entry): as above
T1 sequence (P34972 whole entry): as above

As to `Cc1cc2cc(C(=O)c3cccc(Cl)c3)sc2n1CCN1CCOCC1` [Compound 4, (3-Chlorophenyl)(5-methyl-6-(2-morpholinoethyl)-6H-thieno[2,3-b]pyrrol-2-yl)methanone], in test [1], the IC50 (as a rule, the point on the concentration scale where inhibition reaches its midpoint) was 100 to 1000 nM. Further, the concentration for a half-maximal effect (EC50) on human CB2 (hCB2) and on human CB2 receptors was less than 100 nM throughout.
For `Cc1cc2cc(C(=O)c3ccccc3)sc2n1CCN1CCOCC1` [Compound 7, (5-Methyl-6-(2-morpholinoethyl)-6H-thieno[2,3-b]pyrrol-2-yl)(phenyl)methanone], the 50% inhibitory concentration (IC50) in test [1] lay within 100 to 1000 nM. In addition, the EC50 (usually the midpoint of the concentration-response curve) on human CB2 (hCB2) is 100 to 1000 nM; on human CB2 receptors, less than 100 nM.
On to `Cc1cc2cc(C(=O)c3ccc(Cl)cc3Cl)sc2n1CCN1CCOCC1` [Compound 10, (2,4-Dichlorophenyl)(5-methyl-6-(2-morpholinoethyl)-6H-thieno[2,3-b]pyrrol-2-yl)methanone], for which the half-maximal inhibitory concentration (IC50) in test [1] is less than 100 nM. Further, the EC50 at human CB2 (hCB2) and on human CB2 receptors was less than 100 nM throughout.
On to `Cc1ccccc1C(=O)c1cc2cc(C)n(CCN3CCOCC3)c2s1` [Compound 12, (5-Methyl-6-(2-morpholinoethyl)-6H-thieno[2,3-b]pyrrol-2-yl)(o-tolyl)methanone], for which the half-inhibitory concentration (IC50) in test [1] was less than 100 nM. Besides, the 50% effective concentration (EC50) on human CB2 (hCB2) and on human CB2 receptors was less than 100 nM each time.
With `CCn1c(C)cc2cc(C(=O)c3cccc(Cl)c3Cl)sc21` [Compound 19, (2,3-Dichlorophenyl)(6-ethyl-5-methyl-6H-thieno[2,3-b]pyrrol-2-yl)methanone], the half-inhibitory concentration (IC50) in test [1] is 100 to 1000 nM. Moreover, the half-maximal effective concentration (EC50) on human CB2 (hCB2) was 100 to 1000 nM; on human CB2 receptors it was less than 100 nM.
Consider `CCS(=O)(=O)n1c(C)cc2cc(C(=O)c3cccc(Cl)c3Cl)sc21` [Compound 25, (2,3-Dichlorophenyl)(6-(ethylsulfonyl)-5-methyl-6H-thieno[2,3-b]pyrrol-2-yl)methanone], for which the IC50 in test [1] was less than 100 nM. Further, the EC50 at human CB2 (hCB2) and at human CB2 receptors was less than 100 nM in each case.
As for `COc1cccc(C(=O)c2cc3cc(C)n(CCN4CCOCC4)c3s2)c1` [Compound 26, (3-Methoxyphenyl)(5-methyl-6-(2-morpholinoethyl)-6H-thieno[2,3-b]pyrrol-2-yl)methanone], in test [1], the half-inhibitory concentration (IC50) is less than 100 nM. Also, the concentration for a half-maximal effect (EC50) at human CB2 (hCB2) and at human CB2 receptors was less than 100 nM in each case.
For the compound `Cc1cc2cc(C(=O)c3cccc(Cl)c3Cl)sc2n1CCc1ccccc1` [Compound 30, (2,3-Dichlorophenyl)(5-methyl-6-phenethyl-6H-thieno[2,3-b]pyrrol-2-yl)methanone], the 50% inhibitory concentration (IC50) in test [1] is less than 100 nM. For the same compound, the EC50 on human CB2 (hCB2) and on human CB2 receptors was less than 100 nM each time.
Take `Cc1cc2cc(C(=O)c3cccc(Cl)c3Cl)sc2n1CC1CCOCC1` [Compound 31, (2,3-Dichlorophenyl)(5-methyl-6-((tetrahydro-2H-pyran-4-yl)methyl)-6H-thieno[2,3-b]pyrrol-2-yl)methanone]: the half-maximal inhibitory concentration (IC50) in test [1] is less than 100 nM. Besides, the EC50 on human CB2 (hCB2) and on human CB2 receptors was less than 100 nM throughout.
With `Cc1cc2cc(Cc3cccc(Cl)c3Cl)sc2n1CCN1CCOCC1` [Compound 32, 4-(2-(2-(2,3-Dichlorobenzyl)-5-methyl-6H-thieno[2,3-b]pyrrol-6-yl)ethyl)morpholine], the concentration for half-maximal inhibition (IC50) in test [1] is less than 100 nM. The EC50 at human CB2 (hCB2) and at human CB2 receptors was less than 100 nM in each case.
`Cc1cc2cc(C(=O)c3cccc(Cl)c3Cl)sc2n1CCN1CCN(C)CC1` [Compound 33, (2,3-Dichlorophenyl)(5-methyl-6-(2-(4-methylpiperazin-1-yl)ethyl)-6H-thieno[2,3-b]pyrrol-2-yl)methanone]: the IC50 in test [1] was 1000 to 10000 nM. The “hCB2 EC50 (cAMP ag, nM)” value on human CB2 receptors is on record as “NS (NS means “Not Significant,” which means less than 30% agonist activity when compared to the positive control.)”.
As to `Cc1cc2cc(C(=O)c3cccc(Cl)c3Cl)sc2n1CCCNS(C)(=O)=O` [Compound 37, N-(3-(2-(2,3-Dichlorobenzoyl)-5-methyl-6H-thieno[2,3-b]pyrrol-6-yl)propyl)methanesulfonamide], the IC50 in test [1] was less than 100 nM. Further, the concentration for a half-maximal effect (EC50) on human CB2 (hCB2) and at human CB2 receptors was less than 100 nM each time.
On to `Cc1cc2cc(C(=O)c3cccc(Cl)c3Cl)sc2n1S(=O)(=O)C(C)C` [Compound 38, (2,3-Dichlorophenyl)(6-(isopropylsulfonyl)-5-methyl-6H-thieno[2,3-b]pyrrol-2-yl)methanone], for which, in test [1], the IC50 is less than 100 nM. In addition, the half-maximal effective concentration (EC50) on human CB2 (hCB2) and at human CB2 receptors was less than 100 nM throughout.
Consider `CCS(=O)(=O)n1c(C)cc2cc(C(=O)c3ccccc3Cl)sc21` [Compound 42, (2-Chlorophenyl)(6-(ethylsulfonyl)-5-methyl-6H-thieno[2,3-b]pyrrol-2-yl)methanone], for which, in test [1], the half-inhibitory concentration (IC50) is 100 to 1000 nM. The concentration for a half-maximal effect (EC50) at human CB2 (hCB2) and at human CB2 receptors was less than 100 nM each time.
Take `CCS(=O)(=O)n1c(C)cc2cc(C(=O)c3cccnc3Cl)sc21` [Compound 43, (2-Chloropyridin-3-yl)(6-(ethylsulfonyl)-5-methyl-6H-thieno[2,3-b]pyrrol-2-yl)methanone]: the IC50 in test [1] was 100 to 1000 nM. Besides, the EC50 at human CB2 (hCB2) and at human CB2 receptors was less than 100 nM throughout.
Regarding `COc1ccc(C(=O)c2cc3cc(C)n(CCCNS(C)(=O)=O)c3s2)cc1` [Compound 44, N-(3-(2-(4-methoxybenzoyl)-5-methyl-6H-thieno[2,3-b]pyrrol-6-yl)propyl)methanesulfonamide], the IC50 in test [1] is less than 100 nM. Also, the EC50 at human CB2 (hCB2) and on human CB2 receptors was less than 100 nM throughout.
For `Cc1cc2cc(C(=O)c3cccc(Cl)c3Cl)sc2n1S(=O)(=O)N1CCOCC1` [Compound 45, (2,3-Dichlorophenyl)(5-methyl-6-(morpholinosulfonyl)-6H-thieno[2,3-b]pyrrol-2-yl)methanone], the IC50 in test [1] was less than 100 nM. Moreover, the EC50 at human CB2 (hCB2) and at human CB2 receptors was less than 100 nM throughout.
Take `Cc1cc2cc(C(=O)c3cccc(Cl)c3Cl)sc2n1S(=O)(=O)CC1CCOCC1` [Compound 46, (2,3-Dichlorophenyl)(5-methyl-6-((tetrahydro-2H-pyran-4-yl)methylsulfonyl)-6H-thieno[2,3-b]pyrrol-2-yl)methanone]: in test [1], the 50% inhibitory concentration (IC50) is less than 100 nM. Besides, the concentration for a half-maximal effect (EC50) on human CB2 (hCB2) and on human CB2 receptors was less than 100 nM throughout.
Take `COc1ncccc1C(=O)c1cc2cc(C)n(CCN3CCOCC3)c2s1` [Compound 47, (2-Methoxypyridin-3-yl)(5-methyl-6-(2-morpholinoethyl)-6H-thieno[2,3-b]pyrrol-2-yl)methanone]: in test [1], the half-maximal inhibitory concentration (IC50) lay in the range of 1000 to 10000 nM. Further, the values for the EC50 at human CB2 (hCB2) and at human CB2 receptors were 100 to 1000 nM and less than 100 nM, respectively.
Turning to `COc1ccc(C(=O)c2cc3cc(C)n(S(=O)(=O)N(C)C)c3s2)cc1` [Compound 51, 2-(4-Methoxybenzoyl)-N,N,5-trimethyl-6H-thieno[2,3-b]pyrrole-6-sulfonamide], in test [1], the IC50 was less than 100 nM. For the same compound, the concentration for a half-maximal effect (EC50) on human CB2 (hCB2) and at human CB2 receptors was less than 100 nM throughout.
Consider `COc1ccc(C(=O)c2cc3cc(C)n(S(=O)(=O)N4CCOCC4)c3s2)cc1` [Compound 53, (4-methoxyphenyl)(5-methyl-6-(morpholinosulfonyl)-6H-thieno[2,3-b]pyrrol-2-yl)methanone], for which, in test [1], the IC50 is less than 100 nM. For the same compound, the concentration for a half-maximal effect (EC50) on human CB2 (hCB2) and on human CB2 receptors was less than 100 nM in each case.
`Cc1cc2cc(C(=O)c3ccc(F)cc3)sc2n1CCN1CCOCC1` [Compound 54, (4-Fluorophenyl)(5-methyl-6-(2-morpholinoethyl)-6H-thieno[2,3-b]pyrrol-2-yl)methanone]: the half-maximal inhibitory concentration (IC50) in test [1] fell in the range of 100 to 1000 nM. Besides, the concentration for a half-maximal effect (EC50) on human CB2 (hCB2) and at human CB2 receptors was less than 100 nM in each case.
In the case of `CCS(=O)(=O)n1c(C)cc2cc(C(=O)c3ccc(OC)cc3)sc21` [Compound 56, (6-(Ethylsulfonyl)-5-methyl-6H-thieno[2,3-b]pyrrol-2-yl)(4-methoxyphenyl)methanone], in test [1], the half-inhibitory concentration (IC50) lay within 100 to 1000 nM. Besides, the EC50 on human CB2 (hCB2) and on human CB2 receptors was less than 100 nM throughout.
In the case of `COc1ccc(C(=O)c2cc3cc(C)n(S(=O)(=O)CC4CCOCC4)c3s2)cc1` [Compound 57, (4-Methoxyphenyl)(5-methyl-6-((tetrahydro-2H-pyran-4-yl)methylsulfonyl)-6H-thieno[2,3-b]pyrrol-2-yl)methanone], in test [1], the IC50 was less than 100 nM. Besides, the EC50 at human CB2 (hCB2) and on human CB2 receptors was less than 100 nM each time.
Take `COc1ccc(C(=O)c2cc3cc(C)n(CCN4CCCOCC4)c3s2)cn1` [Compound 158, (6-(2-(1,4-oxazepan-4-yl)ethyl)-5-methyl-6H-thieno[2,3-b]pyrrol-2-yl)(6-methoxypyridin-3-yl)methanone]: the results for the EC50 at human CB2 (hCB2) and at human CB2 receptors were 100 to 1000 nM and less than 100 nM, respectively.
The like results for `COc1ccc(C(=O)c2cc3cc(C)n(CCNC4CCOC4)c3s2)cn1` (centres unmarked) [Compound 164, (6-methoxypyridin-3-yl)(5-methyl-6-(2-((tetrahydrofuran-3-yl)amino)ethyl)-6H-thieno[2,3-b]pyrrol-2-yl)methanone] were, in that order, 1000 to 10000 nM and less than 100 nM.
The like results for `COc1ccc(C(=O)c2cc3cc(C)n(CCN4CCCC4)c3s2)cn1` [Compound 167, (6-methoxypyridin-3-yl)(5-methyl-6-(2-(pyrrolidin-1-yl)ethyl)-6H-thieno[2,3-b]pyrrol-2-yl)methanone] were, in that order, 1000 to 10000 nM and less than 100 nM.
